Laboratory results: patent US4880636A, “Film coated tablet of ranitidine HCl” (priority 1988, dated 1989)
“Also recorded” adds a separate entry of the source. Where a name gives a salt, the structure may show the parent alone.

Tests used:
[1] = Compatibility of plasticizer with ranitidine HCl; conditions: plasticizer in polymeric film coating of ranitidine HCl tablets
[2] = Cast film plasticizer comparison study (discoloration); assay type: physicochemical; set-up: key: 1 = least discoloration; 5 = greatest discoloration; conditions: ranitidine HCl spread on cast HPMC film with plasticizer (0.2 gm per gram HPMC); 60 degrees centigrade/78.9% RH, approximately two weeks; visual
Experimental: Cast film studies are performed using a typical film aqueous coating composition containing, on a per gram HPMC dry weight basis, plasticizer, 0.2 gm, and Opaspray (trademark of Colorcon, Inc., West Point, PA) colorant solids 0.5 gm. Cast films are prepared by adding 1.5 g of a 15% solids solution to a uniform plate, 42 mm in diameter, and drying at ambient temperature for at least 24 hours. Ranitidine HCl (1.5 gm), of particle size 50 to 200 microns, is then spread uniformly on the dried film coating and stored at 60 degrees centigrade/78.9% relative humidity (RH) for approximately two weeks. The RH is controlled by using a desiccator jar and a saturated KBr solution, which is maintained at 60° C. in a drying oven. […] After two weeks, the cast films are removed and visually examined for discoloration.

[3] = cited from earlier work
[4] = Physicians' Desk Reference, 41st ed., page 993 (1987); cited from earlier work

| SMILES | reactivity with ranitidine HCl or promotion of its degradation [1] | Cast Film Discoloration [2] | also measured |
| --- | --- | --- | --- |
| CCCCOC(=O)CCCCCCCCC(=O)OCCCC [dibutyl sebecate] | tend to react with ranitidine HCl or promote degradation at the tablets' surfaces | – | – |
| CCOC(=O)CC(O)(CC(=O)OCC)C(=O)OCC [Triethyl Citrate, triethyl citrate] | – | 3 | – |
| CC(O)CO (centres unmarked) [Propylene Glycol, propylene glycol] | promote degradation; also recorded: tend to react with ranitidine HCl or promote degradation at the tablets' surfaces | 2 | – |
| CCOC(=O)c1ccccc1C(=O)OCC [diethyl phthalate] | tend to react with ranitidine HCl or promote degradation at the tablets' surfaces | – | – |
| CC(=O)OCC(COC(C)=O)OC(C)=O [Triacetin, 1,2,3-propanetriol triacetate] | essentially unreactive with ranitidine HCl | 1 | – |
| OCC(O)CO [Glycerol, glycerol] | – | 5 | – |
| CNC(=C[N+](=O)[O-])NCCSCc1ccc(CN(C)C)o1 [ranitidine HCl] | – | – | solubility in water ([3]; 25° C.): greater than 900 mg/mL; solubility in commonly used organic solvents [3]: very soluble; degradation upon aging [4]: accelerated by heat, moisture and light |
